Consider nine compounds from patent US20110311511A1, “CRYSTAL STRUCTURE OF PfA-M1 AND THE PfA-M1 Co4 COMPLEX” (priority 2008, published 2011).

Assay [1] concerns recombinant P. falciparum M1 aminopeptidase (rPfA-M1). Put plainly: Enzymatic analysis: aminopeptidase activity with fluorogenic peptide substrates (NHMec release) and inhibition. The class given is biochemical, Plasmodium falciparum. Conditions: for Km / kcat: substrate of rPfA-M1, pH 7.5. How it is done:
Aminopeptidase activity was determined by measuring the release of the fluorogenic leaving group, 7-amino-4-methyl-coumarin (NHMec) from the fluorogenic peptide substrates H-Leu-NHMec, H-Ala-NHMec, H-Arg-NHMec, H-Met-NHMec, H-Phe-NHMec, H-Gly-NHMec, H-Val-NHMec, H-Ile-NHMec and H-Pro-NHMec. Reactions were carried out in 96-well microtitre plates (200 μl total volume, 30 min, 37° C.) using a spectrofluorimeter (Bio-Tek KC4) with excitation at 370 nm and emission at 460 nm. […] […] Inhibition experiments were carried out in the presence of substrate.

A further assay deals with T1, PfA-M17 (Plasmodium falciparum, UniProt Q8IL11).
T1 sequence (Q8IL11 84-605 limits assumed): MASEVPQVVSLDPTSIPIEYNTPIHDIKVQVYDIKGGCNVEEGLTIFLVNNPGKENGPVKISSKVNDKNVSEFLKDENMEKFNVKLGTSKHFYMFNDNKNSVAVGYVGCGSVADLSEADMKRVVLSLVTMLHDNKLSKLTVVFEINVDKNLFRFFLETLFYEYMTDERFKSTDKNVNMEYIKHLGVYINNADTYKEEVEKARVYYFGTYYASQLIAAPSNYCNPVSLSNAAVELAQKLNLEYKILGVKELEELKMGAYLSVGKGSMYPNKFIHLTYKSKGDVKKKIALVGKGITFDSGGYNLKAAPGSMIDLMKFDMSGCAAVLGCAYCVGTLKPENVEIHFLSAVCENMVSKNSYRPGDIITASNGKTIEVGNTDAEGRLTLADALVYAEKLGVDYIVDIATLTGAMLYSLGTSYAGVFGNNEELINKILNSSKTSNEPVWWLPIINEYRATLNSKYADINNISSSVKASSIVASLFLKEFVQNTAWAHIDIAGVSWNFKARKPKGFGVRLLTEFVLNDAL
The following applies: cited from earlier work.

The subject of a further assay is P. c. chabaudi. Conditions: cited from earlier work.

In the case of `Cc1cc(=O)oc2cc(NC(=O)[C@@H]3CCCN3)ccc12` [H-Pro-NHmec], in assay [1], the Km stood at 734 µM and the catalytic constant (kcat) was found to be 0.0032 s⁻¹.

As for H-Gly-NHmec, in assay [1], the Km turned out to be 349 µM and the kcat is 0.116 s⁻¹.

For the compound `NC(CCc1ccccc1)P(=O)(O)CC(Cc1ccccc1)C(=O)O` (stereo not shown) [Co4, hPheP[CH2]Phe], the Ki in assay [1] (inhibition of rPfA-M1, in the presence of substrate) was 0.0783 µM. The “inhibition of PfA-M17” value on PfA-M17 is given as “inhibits”. Also, in the assay with P. c. chabaudi, the “reduction of murine infection of P. c. chabaudi compared to controls” value is on record as 92%.

H-Ala-NHmec: in assay [1], the Km was 889 µM and the kcat came to 2.04 s⁻¹.

Turning to `CCC(C)C(N)C(=O)Nc1ccc2c(C)cc(=O)oc2c1` (stereo not shown) [H-Ile-NHmec], in assay [1], the Km amounted to 1710 µM and the kcat is 0.040 s⁻¹.

In the case of H-Phe-NHmec, in assay [1], the Km turned out to be 195 µM and the kcat was determined as 0.18 s⁻¹.

As to H-Leu-NHmec, in assay [1], the Km is 330 µM and the kcat was 1.52 s⁻¹.

In the case of H-Arg-NHmec, in assay [1], the Km is 717 µM and the kcat turned out to be 1.07 s⁻¹.

Take `Cc1cc(=O)oc2cc(NC(=O)[C@@H](N)C(C)C)ccc12` [H-Val-NHmec]: in assay [1], the Km amounted to 1070 µM and the catalytic constant (kcat) worked out at 0.036 s⁻¹.
